Source: patent US12084442B2, “Naphthyridinone derivatives for the treatment of a disease or disorder” (Novartis AG, priority 2021, dated 2024)

Assays:
[1] = Pharmacokinetic properties in rats (IV and PO, whole blood LC-MS/MS); format: in vivo, Spargue Dawley/CD, male; conditions: for Rat AUC0-24 h 3 mg/kg: 3 mg/kg PO, suspension; for Rat AUC0-24 h 3 mg/kg / clearance: whole blood; for clearance: male, Sprague Dawley/CD, rat, IV dosing (0.3-1 mg/kg), CL = Dose/AUCinf; for Rat F: oral bioavailability, PO 3 mg/kg vs IV
Description: The pharmacokinetic properties of the compounds in rats were assessed by the following in vivo studies as described below.
At least four days before first drug administration, the rats (250-350 g) were anesthetized and, under aseptic conditions, catheters were surgically implanted into the left and right jugular veins (one for blood collection and the other one for intravenous injection). The catheters were exteriorized and fixed at the neck. For analgesic treatment, animals received analgesics before surgery and subsequently twice at appropriate times after surgery. The freely-moving animals equipped with catheters are kept individually in Macrolon cages, with free access to food and water throughout the experiment. After a recovery phase of at least 4 days, a single test compound was administered intravenously or orally, based upon the individual body weights.
The test articles were administered as solution in NMP:PEG 200 (10:90 v/v). Test articles where no solution can be obtained were rejected and not used in discrete or cassette dosing.
The test article were administered as suspension in MC:Tween 80:water (0.5:0.1:99.4 w/v/v).
The test article was administered as solution and as a bolus injection or as short I.V. infusion (30 seconds) via the left jugular vein catheter to conscious rats. The dose volume was 0.5 mL/kg body weight.
The test article was administered as a solution or suspension into the esophagus via a gavage tube to conscious rats. The dose volume was 5 mL/kg body weight. The exact start time of dosing and exact dose volume was noted.
Blood samples (20 μL) were collected from the right jugular vein catheter of cannulated animals (if JV catheter becomes non patent during the PK experiment (i.e., after dosing), blood can exceptionally be collected by tail vein puncture but it must be clearly specified into the in-life observations and data study rep) in tubes containing 10% of blood of 2% W/V K2 EDTA (2.0 mg/mL) at the different time intervals. Blood was collected following IV dosing at 0.083, 0.25, 0.5, 1, 2, 4, 7 and 24 h post dose. Blood was collected following PO dosing: 0.25, 0.5, 1, 2, 4, 7 and 24 h post dose.
The concentrations of compounds in whole blood were quantified using a liquid chromatography/mass spectrometry (LC-MS/MS) assay. 20 μL of each blood sample were precipitated with 100 μL of acetonitrile containing generic internal standards (carbamazepine/telmisartan/verapamil; c=50 ng/mL). The samples were vortexed thoroughly then centrifuged (5 min, 4° C.). The supernatant (80 μL) was transferred to a clean 96-well plate and mixed with 80 μL of water.
The samples were injected (1 to 20 μL) onto suitable analytical columns, using various isocratic methods and flow rates. Mobile phases typically consisting of 0.1% formic acid in water (solvent A) and 0.1% formic acid in acetonitrile (solvent B) with additional modifiers, if needed. Compounds and the internal standards were eluted at various retention times. The HPLC systems were interfaced to mass spectrometers. MS/MS analyses were carried out using electrospray ionization (ESI), typically in the positive ionization mode. Compounds and the internal standards were monitored using multiple reaction monitoring (MRM).
The standard curves employed for sample quantitation ranged over several log units. The lower limit of quantitation (LLOQ) in blood was determined and used as cutoff for the analytical sensitivity. Known amounts of the compounds were spiked into blood to create quality control samples with six known concentrations in singlets. The accuracy of the in vivo blood sample concentration determination was considered acceptable when the intra-assay accuracies obtained for the quality control samples were within 70% to 130% of the expected concentrations. Subsequently, from the time concentration data, pharmacokinetic parameters were calculated by non-compartmental regression analyses using an in house fitting program. […]

[2] = Pharmacokinetic study in male Beagle dogs; format: in vivo
GIRK1/4 = GIRK1/4 (Homo sapiens (Human), UniProt P48544+P48549); experiment: GIRK1/4 activity assay (Quattro/IonWorks population patch clamp, inward potassium current); format: cell-based; conditions: GIRK1/4 HEK293 stable cells; current inhibition normalized to DMSO-only control
Description: The GIRK1/4 activity of a compound according to the present invention was assessed by the following in vitro method.
• a. External buffer: 10 mM NaCl, 50 mM Na Gluconate, 80 mM K Gluconate, 1.8 mM CaCl2, 1 mM MgCl2, 10 mM HEPES, 10 mM Glucose, pH 7.4; osmolarity 300-310 Osm/L. • b. Internal buffer: 30 mM KCl, 100 mM K Gluconate, 1 mM MgCl2, 10 mM HEPES, 1 mM EGTA, 10 mM NaCl, pH 7.2; osmolarity 284-292 Osm/L. Compounds: • c. Prepare seven-fold compound dilution series (10 mM to 20 uM) in 100% DMSO, in 384-well polypropylene plates. • d. Propafenone (Sigma Aldrich, catalog number P4670) was used as a positive control and DMSO for neutral control • e. Resuspend 1 μl of compounds in DMSO into 66.7 μl external buffer in 384-well polypropylene plate and load into Plate 1 section of Molecular Devices Quattro® Quattro Setup: • f. Load 384-well Population Patch Plate (Molecular Devices #9000-0902) into Quattro • g. Fill Quattro F-soak trough with 20% DMSO and 50% EtOH • h. Fill Quattro buffer trough with external buffer • i. Attach internal buffer flask to Quattro internal buffer tubing • j. Attach PBS (Phosphate Buffered Saline, minus Ca^++ and Mg^++, pH7.4) bottle to F-head & E-head wash on Quattro Antibiotic: • k. Resuspend 5.1-5.8 mg amphotericin B (Sigma Aldrich, catalog number A2411) in 175 μl DMSO • l. Add the resulting solution to 50 mL internal buffer and attach to antibiotic tubing port on Quattro Cells: • m. Use GIRK1/4 HEK293 stable cells (obtained from ChanTest, 14656 Neo Parkway, Cleveland, Ohio 44128) grown to ˜80% confluency in the following cell culture medium: DMEM containing 10% (v/v) Fetal Bovine Serum, Penicillin/Streptomycin (at “IX” concentration from a 100× stock), 0.5 mg/mL G418 and 0.1 mg/mL Zeocin. • n. Detach cells using Detachin (Genlantis, 11011 Torreyana, San Diego, CA 92121), washed with PBS (minus Ca^++ and Mg^++) and resuspend in external buffer (5 mL final volume at 2.0-2.1×10^6 cells/mL) • o. Load into cell trough of Quattro Assay Protocol:
Quattro was controlled using IonWorks v2 software to perform the following steps: • p. Added 3.5 μl cells plus 3.5 μl external buffer to wells of Quattro Patch Plate® • q. Circulated amphotericin B and internal buffer onto cells • r. Applied the following voltage protocol: Pulse 1: 15 mV for 300 milliseconds (ms), followed by Pulse 2: −120 mV for 400 ms, then Pulse 3: −15 mV for 400 ms, and finally Pulse 4: −120 mV to 40 mV over 500 ms (this is a voltage ramp). • s. Measured magnitude of inward potassium current at time point between 1200-1220 ms from start of Pulse 1 (i.e., during the voltage ramp phase). • t. Added 3.5 μl of diluted compounds (or DMSO) to wells and repeated […] (final compound concentrations are 50 uM to 0.1 uM, and each concentration was tested in quadruplicate—i.e., in 4 separate wells). • u. The difference between current magnitude pre vs. post-compound gave a measure of GIRK1/4 inhibition. Data Analysis:
IC50 values were calculated by plotting the percentage of current inhibition (normalized to the DMSO-only control) as a function of compound concentration using standard data analysis software.

GIRK1/4, sequence (P48549 whole entry): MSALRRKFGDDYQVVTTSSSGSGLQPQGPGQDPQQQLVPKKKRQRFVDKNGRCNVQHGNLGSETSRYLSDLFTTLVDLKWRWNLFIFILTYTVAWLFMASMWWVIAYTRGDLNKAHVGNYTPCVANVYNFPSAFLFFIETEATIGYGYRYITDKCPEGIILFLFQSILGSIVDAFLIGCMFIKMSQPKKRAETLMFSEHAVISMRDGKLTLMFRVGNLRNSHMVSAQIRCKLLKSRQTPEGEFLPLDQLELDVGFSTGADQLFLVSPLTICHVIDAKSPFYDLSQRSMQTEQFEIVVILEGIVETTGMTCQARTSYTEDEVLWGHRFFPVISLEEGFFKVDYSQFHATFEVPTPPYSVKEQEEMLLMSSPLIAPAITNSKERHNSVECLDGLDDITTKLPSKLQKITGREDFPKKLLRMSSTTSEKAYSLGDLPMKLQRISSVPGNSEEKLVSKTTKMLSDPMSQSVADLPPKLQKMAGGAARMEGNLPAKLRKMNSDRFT
GIRK1/4, sequence (P48544 whole entry): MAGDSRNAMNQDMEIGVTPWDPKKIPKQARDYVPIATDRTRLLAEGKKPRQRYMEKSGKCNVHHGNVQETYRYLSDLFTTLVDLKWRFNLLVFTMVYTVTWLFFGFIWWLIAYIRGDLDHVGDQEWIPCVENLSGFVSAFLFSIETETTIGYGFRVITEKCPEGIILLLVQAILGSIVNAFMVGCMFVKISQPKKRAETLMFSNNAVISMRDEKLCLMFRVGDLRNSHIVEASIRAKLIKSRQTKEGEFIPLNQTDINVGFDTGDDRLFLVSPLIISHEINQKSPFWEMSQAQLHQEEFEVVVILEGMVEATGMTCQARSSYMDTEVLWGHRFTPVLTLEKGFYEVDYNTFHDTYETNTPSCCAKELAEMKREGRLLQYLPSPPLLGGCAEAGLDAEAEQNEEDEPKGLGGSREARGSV

Row | Rat AUC0-24 h 3 mg/kg [1] | clearance [1] | Rat F [1] | AUC0-24 h ([2]; 0.3 mg/kg IV solution and 1 mg/kg PO suspension) | clearance ([2]; dog, in vivo, 0.3 mg/kg IV as a solution, read-out: Clearance (Cl)) | bioavailability ([2]; dog, in vivo, 1 mg/kg PO as a suspension vs 0.3 mg/kg IV, read-out: Oral bioavailability (F)) | IC50 (GIRK1/4) | Structure (SMILES)
1 | 3270 nMh | 20.2 mL/min/kg | 71% | 5270 nMh | 5.5 mL/min/kg | 87% | 90 nM | CNC(=O)CCOc1ncc(Cl)c2c1c(=O)cc(C)n2-c1c(Cl)cc(OCCO)cc1Cl [Example 1, 3-((8-Chloro-1-(2,6-dichloro-4-(2-hydroxyethoxy)phenyl)-2-methyl-4-oxo-1,4-dihydro-1,6-naphthyridin-5-yl)oxy)-N-methylpropanamide]
2 | 2407 nMh | 19.8 mL/min/kg | 44% |  |  |  | 50 nM | Cc1cc(=O)c2c(CCS(C)(=O)=O)ncc(Cl)c2n1-c1c(Cl)cc(OCCO)cc1Cl [Example 20, 8-Chloro-1-(2,6-dichloro-4-(2-hydroxyethoxy)phenyl)-2-methyl-5-(2-(methylsulfonyl)ethyl)-1,6-naphthyridin-4(1H)-one]
